The values that follow come from ChEMBL document CHEMBL2046320, “Bisubstrate analog inhibitors of 6-hydroxymethyl-7,8-dihydropterin pyrophosphokinase: new lead exhibits a distinct binding mode” (Bioorg Med Chem, 2012).

In test [1] the target is T1, 2-amino-4-hydroxy-6-hydroxymethyldihydropteridine pyrophosphokinase (Escherichia coli (strain K12), UniProt P26281).
T1 sequence (P26281 whole entry): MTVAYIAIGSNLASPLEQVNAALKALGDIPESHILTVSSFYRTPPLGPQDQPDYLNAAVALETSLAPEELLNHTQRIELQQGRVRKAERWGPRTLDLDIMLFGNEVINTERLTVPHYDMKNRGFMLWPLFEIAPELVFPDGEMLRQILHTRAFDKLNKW
Description: Inhibition of Escherichia coli HPPK using [alpha-33P]ATP after 30 mins.

For test [2], the target named is T1, 2-amino-4-hydroxy-6-hydroxymethyldihydropteridine pyrophosphokinase. Description: Binding affinity to Escherichia coli HPPK at pH 8.3 by fluorometric titration.

Molecule `CC1(C)Nc2nc(N)[nH]c(=O)c2N=C1C(=O)NCC(=O)NCCS(=O)(=O)C[C@H]1O[C@@H](n2cnc3c(N)ncnc32)[C@H](O)[C@@H]1O` gave an IC50 in test [1] of 9.53 µM. The same molecule gave an equilibrium dissociation constant (Kd) in test [2] of 4.16 µM.

Usually IC50 stands for the concentration that gives 50% inhibition. The Kd is the concentration at which binding is half-saturated. A lower Kd goes with tighter binding.
